In patent US20120172359A1 (NOVARTIS AG, priority 2010, published 2012):
Counter-ions that a name gives are not always drawn.

Biological target: Human BACE-1 (Homo sapiens, UniProt P56817)
Test: Test 1: Inhibition of Human BACE-1
Assay type: biochemical
Conditions: Test 1; recombinant BACE-1 (extracellular domain), acetate buffer pH 4.5, 1 hour with test compound at room temperature, fluorescence-quenched peptide substrate; read-out: Bace IC50

Chain of Human BACE-1 (P56817 46-457 limits assumed): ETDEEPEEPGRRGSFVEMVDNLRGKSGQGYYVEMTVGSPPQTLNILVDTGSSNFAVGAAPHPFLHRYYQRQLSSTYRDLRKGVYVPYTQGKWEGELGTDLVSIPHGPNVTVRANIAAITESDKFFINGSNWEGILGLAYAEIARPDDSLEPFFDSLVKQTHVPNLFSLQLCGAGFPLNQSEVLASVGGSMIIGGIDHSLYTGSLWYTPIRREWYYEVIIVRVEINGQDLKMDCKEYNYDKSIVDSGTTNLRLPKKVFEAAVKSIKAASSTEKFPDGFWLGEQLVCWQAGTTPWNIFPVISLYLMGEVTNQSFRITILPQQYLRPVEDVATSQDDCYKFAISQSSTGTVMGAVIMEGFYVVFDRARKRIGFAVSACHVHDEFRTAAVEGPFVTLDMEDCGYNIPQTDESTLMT

| SMILES | IC50 [nM] |
| --- | --- |
| NC1=NC(CF)(c2cc(Cl)cc(NC(=O)c3ccc(Br)cn3)c2)COC1 (stereo not drawn) [Example 32, 5-Bromo-pyridine-2-carboxylic acid [3-(5-amino-3-fluoromethyl-3,6-dihydro-2H-[1,4]oxazin-3-yl)-5-chloro-phenyl]-amide] | 1400 |
| NC1=N[C@](CF)(c2cccc(NC(=O)c3ccc(Br)cn3)c2)COC1 [Example 33, 5-Bromo-pyridine-2-carboxylic acid [3-((R)-5-amino-3-fluoromethyl-3,6-dihydro-2H-[1,4]oxazin-3-yl)-phenyl]-amide] | 130 |
| NC1=NC(c2cccc(NC(=O)c3ccc(Br)cn3)c2)(C(F)F)COC1 (stereo not drawn) [Example 34, 5-Bromo-pyridine-2-carboxylic acid [3-(5-amino-3-difluoromethyl-3,6-dihydro-2H-[1,4]oxazin-3-yl)-phenyl]-amide hydrochloride] | 560 |
| N#Cc1ccc(C(=O)Nc2cccc(C3(C(F)F)COCC(N)=N3)c2)nc1 (stereo not drawn) [Example 36, 5-Cyano-pyridine-2-carboxylic acid [3-(5-amino-3-difluoromethyl-3,6-dihydro-2H-[1,4]oxazin-3-yl)-phenyl]-amide] | 350 |
| Cc1cc(Br)cnc1C(=O)Nc1cccc(C2(C(F)F)COCC(N)=N2)c1 (stereo not drawn) [Example 37, 5-Bromo-3-methyl-pyridine-2-carboxylic acid [3-(5-amino-3-difluoromethyl-3,6-dihydro-2H-[1,4]oxazin-3-yl)-phenyl]-amide] | 120 |
| NC1=NC(c2cccc(NC(=O)c3ccc(C(F)(F)F)cn3)c2)(C(F)F)COC1 (stereo not drawn) [Example 39, 5-Trifluoromethyl-pyridine-2-carboxylic acid [3-(5-amino-3-difluoromethyl-3,6-dihydro-2H-[1,4]oxazin-3-yl)-phenyl]-amide] | 780 |
| NC1=NC(c2cccc(NC(=O)c3ncc(C(F)(F)F)cc3Cl)c2)(C(F)F)COC1 (stereo not drawn) [Example 40, 3-Chloro-5-trifluoromethyl-pyridine-2-carboxylic acid [3-(5-amino-3-difluoromethyl-3,6-dihydro-2H-[1,4]oxazin-3-yl)-phenyl]amide] | 1000 |
| Cc1cc(Cl)cnc1C(=O)Nc1cccc(C2(C(F)F)COCC(N)=N2)c1 (stereo not drawn) [Example 41, 5-Chloro-3-methyl-pyridine-2-carboxylic acid [3-(5-amino-3-difluoromethyl-3,6-dihydro-2H-[1,4]oxazin-3-yl)-phenyl]-amide] | 350 |
| NC1=NC(c2cc(NC(=O)c3ccc(Br)cn3)ccc2F)(C(F)F)COC1 (stereo not drawn) [Example 42, 5-Bromo-pyridine-2-carboxylic acid [3-(5-amino-3-difluoromethyl-3,6-dihydro-2H-[1,4]oxazin-3-yl)-4-fluoro-phenyl]-amide hydrochloride] | 56 |
| NC1=NC(c2cc(NC(=O)c3ccc(Cl)cn3)ccc2F)(C(F)F)COC1 (stereo not drawn) [Example 43, 5-Chloro-pyridine-2-carboxylic acid [3-(5-amino-3-difluoromethyl-3,6-dihydro-2H-[1,4]oxazin-3-yl)-4-fluoro-phenyl]-amide] | 62 |
| Cc1cc(Cl)cnc1C(=O)Nc1ccc(F)c([C@]2(C(F)F)COCC(N)=N2)c1 [Example 44, 5-Chloro-3-methyl-pyridine-2-carboxylic acid [3-((R)-5-amino-3-difluoromethyl-3,6-dihydro-2H-[1,4]oxazin-3-yl)-4-fluoro-phenyl]-amide] | 19 |
| Cc1cc(Br)cnc1C(=O)Nc1ccc(F)c([C@]2(C(F)F)COCC(N)=N2)c1 [Example 45, 5-Bromo-3-methyl-pyridine-2-carboxylic acid [3-((R)-5-amino-3-difluoromethyl-3,6-dihydro-2H-[1,4]oxazin-3-yl)-4-fluoro-phenyl]amide] | 16 |
| NC1=N[C@@](c2cc(NC(=O)c3ncc(C(F)(F)F)cc3Cl)ccc2F)(C(F)F)COC1 [Example 46, 3-Chloro-5-trifluoromethyl-pyridine-2-carboxylic acid [3-((R)-5-amino-3-difluoromethyl-3,6-dihydro-2H-[1,4]oxazin-3-yl)-4-fluoro-phenyl]-amide] | 71 |
| NC1=N[C@@](c2cc(NC(=O)c3ccc(C(F)(F)F)cn3)ccc2F)(C(F)F)COC1 [Example 47, 5-Trifluoromethyl-pyridine-2-carboxylic acid [3-((R)-5-amino-3-difluoromethyl-3,6-dihydro-2H-[1,4]oxazin-3-yl)-4-fluoro-phenyl]-amide] | 56 |
| Cc1cnc(C(=O)Nc2ccc(F)c([C@]3(C(F)F)COCC(N)=N3)c2)cn1 [Example 48, 5-Methyl-pyrazine-2-carboxylic acid [3-((R)-5-amino-3-difluoromethyl-3,6-dihydro-2H-[1,4]oxazin-3-yl)-4-fluoro-phenyl]-amide] | 550 |
| COc1ccc(C(=O)Nc2ccc(F)c([C@]3(C(F)F)COCC(N)=N3)c2)nc1 [Example 49, 5-Methoxy-pyridine-2-carboxylic acid [3-((R)-5-amino-3-difluoromethyl-3,6-dihydro-2H-[1,4]oxazin-3-yl)-4-fluoro-phenyl]-amide] | 50 |
| C[C@@]1(c2cc(Br)cc(NC(=O)c3ncc(Br)cn3)c2)COCC(N)=N1 [Example 51, 5-Bromo-pyrimidine-2-carboxylic acid [3-((R)-5-amino-3-methyl-3,6-dihydro-2H-[1,4]oxazin-3-yl)-5-bromo-phenyl]-amide hydrochloride] | 230 |
| C[C@@]1(c2cc(Br)cc(NC(=O)c3ccc(Br)cn3)c2)COCC(N)=N1 [Example 52, 5-Bromo-pyridine-2-carboxylic acid [3-((R)-5-amino-3-methyl-3,6-dihydro-2H-[1,4]oxazin-3-yl)-5-bromo-phenyl]-amide] | 180 |
| C[C@@]1(c2cc(Br)cc(NC(=O)c3ccc(C#N)cn3)c2)COCC(N)=N1 [Example 53, 5-Cyano-pyridine-2-carboxylic acid [3-((R)-5-amino-3-methyl-3,6-dihydro-2H-[1,4]oxazin-3-yl)-5-bromo-phenyl]-amide] | 380 |
| Cc1cc(Br)cnc1C(=O)Nc1cc(Br)cc([C@]2(C)COCC(N)=N2)c1 [Example 55, 5-Bromo-3-methyl-pyridine-2-carboxylic acid [3-((R)-5-amino-3-methyl-3,6-dihydro-2H-[1,4]oxazin-3-yl)-5-bromo-phenyl]-amide] | 84 |
| C[C@@]1(c2cc(Br)cc(NC(=O)c3ccc(Cl)cn3)c2)COCC(N)=N1 [Example 56, 5-Chloro-pyridine-2-carboxylic acid [3-((R)-5-amino-3-methyl-3,6-dihydro-2H-[1,4]oxazin-3-yl)-5-bromo-phenyl]-amide] | 101 |
| Cc1cnc(C(=O)Nc2cc(Br)cc([C@]3(C)COCC(N)=N3)c2)cn1 [Example 57, 5-Methyl-pyrazine-2-carboxylic acid [3-((R)-5-amino-3-methyl-3,6-dihydro-2H-[1,4]oxazin-3-yl)-5-bromo-phenyl]-amide] | 1700 |
| Cc1nc(C(=O)Nc2cc(Br)cc([C@]3(C)COCC(N)=N3)c2)c(C)o1 [Example 58, 2,5-Dimethyl-oxazole-4-carboxylic acid [3-((R)-5-amino-3-methyl-3,6-dihydro-2H-[1,4]oxazin-3-yl)-5-bromo-phenyl]amide] | 780 |
| Cc1nc(C(=O)Nc2cc(Br)cc([C@]3(C)COCC(N)=N3)c2)co1 [Example 59, 2-Methyl-oxazole-4-carboxylic acid [3-((R)-5-amino-3-methyl-3,6-dihydro-2H-[1,4]oxazin-3-yl)-5-bromo-phenyl]-amide] | 240 |
